Earlier results as cited in patent publication US12090156B2, “Application of CB-839 in preparation of drug for inhibiting corneal neovascularization (CNV)” (Institute of Ophthalmology Affiliated to Shandong First …, priority 2022, dated 2024).

Tested on: cancer cell lines such as triple-negative breast cancer (TNBC), lung adenocarcinoma, chondrosarcoma, and lymphoma cell lines

Structure (SMILES): O=C(Cc1cccc(OC(F)(F)F)c1)Nc1ccc(CCCCc2nnc(NC(=O)Cc3ccccn3)s2)nn1 [CB-839]
- antiproliferative activity: significant antiproliferative activity
